Measured values as given in ChEMBL document CHEMBL3352542, “Synthesis, biological evaluation and molecular modeling study of 2-(1,3,4-thiadiazolyl-thio and 4-methyl-thiazolyl-thio)-quinazolin-4-ones as a new class of DHFR inhibitors” (Bioorg Med Chem Lett, 2014).
Active and inactive are the calls of the source.

How the values were obtained:
Dihydrofolate reductase = target: T1, Dihydrofolate reductase (Bos taurus, UniProt P00376); assay: Inhibition of bovine liver DHFR
T1 sequence (P00376 whole entry): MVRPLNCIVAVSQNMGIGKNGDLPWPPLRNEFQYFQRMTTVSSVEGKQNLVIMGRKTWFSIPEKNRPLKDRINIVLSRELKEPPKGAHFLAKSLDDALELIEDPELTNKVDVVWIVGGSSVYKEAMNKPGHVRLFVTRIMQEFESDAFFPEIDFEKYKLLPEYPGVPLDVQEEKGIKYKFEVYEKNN

Staphylococcus aureus = assay: Antimicrobial activity against Staphylococcus aureus assessed as inhibition zone at 200 ug/disk after 24 hrs by disc-diffusion method; type: functional; details: read-out: IZ
Bacillus subtilis = assay: Antimicrobial activity against Bacillus subtilis assessed as inhibition zone at 200 ug/disk after 24 hrs by disc-diffusion method; type: functional; details: read-out: IZ
Escherichia coli = assay: Antimicrobial activity against Escherichia coli assessed as inhibition zone at 200 ug/disk after 24 hrs by disc-diffusion method; type: functional; details: read-out: IZ
Pseudomonas aeruginosa = assay: Antimicrobial activity against Pseudomonas aeruginosa assessed as inhibition zone at 200 ug/disk after 24 hrs by disc-diffusion method; type: functional; details: read-out: IZ
Candida albicans = assay: Antimicrobial activity against Candida albicans assessed as inhibition zone at 200 ug/disk after 24 hrs by disc-diffusion method; type: functional; details: read-out: IZ
CCRF-CEM = assay: Growth inhibition of human CCRF-CEM cells at 10 uM after 48 hrs; type: functional
HL-60(TB) = assay: Growth inhibition of human HL-60(TB) cells at 10 uM after 48 hrs; type: functional
K562 = assay: Growth inhibition of human K562 cells at 10 uM after 48 hrs; type: functional
MOLT-4 = assay: Growth inhibition of human MOLT4 cells at 10 uM after 48 hrs; type: functional
RPMI-8226 = assay: Growth inhibition of human RPMI8226 cells at 10 uM after 48 hrs; type: functional
SR = assay: Growth inhibition of human SR cells at 10 uM after 48 hrs; type: functional
A549 = assay: Growth inhibition of human A549 cells at 10 uM after 48 hrs; type: functional
HOP-92 = assay: Growth inhibition of human HOP92 cells at 10 uM after 48 hrs; type: functional
NCI-H226 = assay: Growth inhibition of human NCI-H226 cells at 10 uM after 48 hrs; type: functional
NCI-H23 = assay: Growth inhibition of human NCI-H23 cells at 10 uM after 48 hrs; type: functional
NCI-H460 = assay: Growth inhibition of human NCI-H460 cells at 10 uM after 48 hrs; type: functional
NCI-H522 = assay: Growth inhibition of human NCI-H522 cells at 10 uM after 48 hrs; type: functional
COLO 205 = assay: Growth inhibition of human COLO205 cells at 10 uM after 48 hrs; type: functional
HCC 2998 = assay: Growth inhibition of human HCC2998 cells at 10 uM after 48 hrs; type: functional
HCT-116 = assay: Growth inhibition of human HCT116 cells at 10 uM after 48 hrs; type: functional
HCT-15 = assay: Growth inhibition of human HCT15 cells at 10 uM after 48 hrs; type: functional
HT-29 = assay: Growth inhibition of human HT-29 cells at 10 uM after 48 hrs; type: functional
KM12 = assay: Growth inhibition of human KM12 cells at 10 uM after 48 hrs; type: functional
SW-620 = assay: Growth inhibition of human SW620 cells at 10 uM after 48 hrs; type: functional
SF-268 = assay: Growth inhibition of human SF268 cells at 10 uM after 48 hrs; type: functional
SF-295 = assay: Growth inhibition of human SF295 cells at 10 uM after 48 hrs; type: functional
SF-539 = assay: Growth inhibition of human SF539 cells at 10 uM after 48 hrs; type: functional
SNB-19 = assay: Growth inhibition of human SNB19 cells at 10 uM after 48 hrs; type: functional
SNB-75 = assay: Growth inhibition of human SNB75 cells at 10 uM after 48 hrs; type: functional
U-251 = assay: Growth inhibition of human U251 cells at 10 uM after 48 hrs; type: functional
LOX IMVI = assay: Growth inhibition of human LOXIMVI cells at 10 uM after 48 hrs; type: functional
Malme-3M = assay: Growth inhibition of human MALME-3M cells at 10 uM after 48 hrs; type: functional
M14 = assay: Growth inhibition of human M14 cells at 10 uM after 48 hrs; type: functional
MDA-MB-435 = assay: Growth inhibition of human MDA-MB-435 cells at 10 uM after 48 hrs; type: functional
SK-MEL-5 = assay: Growth inhibition of human SK-MEL-5 cells at 10 uM after 48 hrs; type: functional
UACC-257 = assay: Growth inhibition of human UACC257 cells at 10 uM after 48 hrs; type: functional
UACC-62 = assay: Growth inhibition of human UACC62 cells at 10 uM after 48 hrs; type: functional
OVCAR-3 = assay: Growth inhibition of human OVCAR3 cells at 10 uM after 48 hrs; type: functional
OVCAR-4 = assay: Growth inhibition of human OVCAR4 cells at 10 uM after 48 hrs; type: functional
OVCAR-5 = assay: Growth inhibition of human OVCAR5 cells at 10 uM after 48 hrs; type: functional
OVCAR-8 = assay: Growth inhibition of human OVCAR8 cells at 10 uM after 48 hrs; type: functional
NCI/ADR-RES = assay: Growth inhibition of human NCI-ADR-RES cells at 10 uM after 48 hrs; type: functional
786-0 = assay: Growth inhibition of human 786-0 cells at 10 uM after 48 hrs; type: functional
A498 = assay: Growth inhibition of human A498 cells at 10 uM after 48 hrs; type: functional
ACHN = assay: Growth inhibition of human ACHN cells at 10 uM after 48 hrs; type: functional
CAKI-1 = assay: Growth inhibition of human CAKI-1 cells at 10 uM after 48 hrs; type: functional
RXF 393 = assay: Growth inhibition of human RXF393 cells at 10 uM after 48 hrs; type: functional
SN12C = assay: Growth inhibition of human SN12C cells at 10 uM after 48 hrs; type: functional
TK-10 = assay: Growth inhibition of human TK10 cells at 10 uM after 48 hrs; type: functional
UO-31 = assay: Growth inhibition of human UO31 cells at 10 uM after 48 hrs; type: functional
PC-3 = assay: Growth inhibition of human PC3 cells at 10 uM after 48 hrs; type: functional
MCF7 = assay: Growth inhibition of human MCF7 cells at 10 uM after 48 hrs; type: functional
MDA-MB-231 = assay: Growth inhibition of human MDA-MB-231 cells at 10 uM after 48 hrs; type: functional
Hs-578T = assay: Growth inhibition of human Hs 578T cells at 10 uM after 48 hrs; type: functional
BT-549 = assay: Growth inhibition of human BT549 cells at 10 uM after 48 hrs; type: functional
T47D = assay: Growth inhibition of human T47D cells at 10 uM after 48 hrs; type: functional
MDA-MB-468 = assay: Growth inhibition of human MDA-MB-468 cells at 10 uM after 48 hrs; type: functional

COc1cc2nc(Sc3sc(N)nc3C)n(-c3ccc(Cl)cc3)c(=O)c2cc1OC
inactive: growth inhibition (GI) (CCRF-CEM) | growth inhibition (GI) (HL-60(TB)) | growth inhibition (GI) (K562) | growth inhibition (GI) (MOLT-4) | growth inhibition (GI) (RPMI-8226) | growth inhibition (GI) (SR) | growth inhibition (GI) (A549) | growth inhibition (GI) (HOP-92) | growth inhibition (GI) (NCI-H226) | growth inhibition (GI) (NCI-H23) | growth inhibition (GI) (NCI-H460) | growth inhibition (GI) (NCI-H522) | growth inhibition (GI) (COLO 205) | growth inhibition (GI) (HCC 2998) | growth inhibition (GI) (HCT-116) | growth inhibition (GI) (HCT-15) | growth inhibition (GI) (HT-29) | growth inhibition (GI) (KM12) | growth inhibition (GI) (SW-620) | growth inhibition (GI) (SF-268) | growth inhibition (GI) (SF-295) | growth inhibition (GI) (SF-539) | growth inhibition (GI) (SNB-19) | growth inhibition (GI) (SNB-75) | growth inhibition (GI) (U-251) | growth inhibition (GI) (LOX IMVI) | growth inhibition (GI) (Malme-3M) | growth inhibition (GI) (M14) | growth inhibition (GI) (MDA-MB-435) | growth inhibition (GI) (SK-MEL-5) | growth inhibition (GI) (UACC-257) | growth inhibition (GI) (UACC-62) | growth inhibition (GI) (OVCAR-3) | growth inhibition (GI) (OVCAR-4) | growth inhibition (GI) (OVCAR-5) | growth inhibition (GI) (OVCAR-8) | growth inhibition (GI) (NCI/ADR-RES) | growth inhibition (GI) (786-0) | growth inhibition (GI) (A498) | growth inhibition (GI) (ACHN) | growth inhibition (GI) (CAKI-1) | growth inhibition (GI) (RXF 393) | growth inhibition (GI) (SN12C) | growth inhibition (GI) (TK-10) | growth inhibition (GI) (UO-31) | growth inhibition (GI) (PC-3) | growth inhibition (GI) (MCF7) | growth inhibition (GI) (MDA-MB-231) | growth inhibition (GI) (Hs-578T) | growth inhibition (GI) (BT-549) | growth inhibition (GI) (T47D) | growth inhibition (GI) (MDA-MB-468)
18 mm: zone of inhibition at 200 µg/disc (Staphylococcus aureus)
2 µM: IC50 (Dihydrofolate reductase)
8 mm: zone of inhibition at 200 µg/disc (Escherichia coli) | zone of inhibition at 200 µg/disc (Pseudomonas aeruginosa) | zone of inhibition at 200 µg/disc (Candida albicans)
14 mm: zone of inhibition at 200 µg/disc (Bacillus subtilis)

Cc1ccc2nc(Sc3sc(N)nc3C)n(-c3ccccc3)c(=O)c2c1
8 mm: zone of inhibition at 200 µg/disc (Staphylococcus aureus) | zone of inhibition at 200 µg/disc (Bacillus subtilis) | zone of inhibition at 200 µg/disc (Escherichia coli) | zone of inhibition at 200 µg/disc (Pseudomonas aeruginosa) | zone of inhibition at 200 µg/disc (Candida albicans)
inactive: growth inhibition (GI) (CCRF-CEM) | growth inhibition (GI) (HL-60(TB)) | growth inhibition (GI) (K562) | growth inhibition (GI) (MOLT-4) | growth inhibition (GI) (RPMI-8226) | growth inhibition (GI) (SR) | growth inhibition (GI) (A549) | growth inhibition (GI) (HOP-92) | growth inhibition (GI) (NCI-H226) | growth inhibition (GI) (NCI-H23) | growth inhibition (GI) (NCI-H460) | growth inhibition (GI) (NCI-H522) | growth inhibition (GI) (COLO 205) | growth inhibition (GI) (HCC 2998) | growth inhibition (GI) (HCT-116) | growth inhibition (GI) (HCT-15) | growth inhibition (GI) (HT-29) | growth inhibition (GI) (KM12) | growth inhibition (GI) (SW-620) | growth inhibition (GI) (SF-268) | growth inhibition (GI) (SF-295) | growth inhibition (GI) (SF-539) | growth inhibition (GI) (SNB-19) | growth inhibition (GI) (SNB-75) | growth inhibition (GI) (U-251) | growth inhibition (GI) (LOX IMVI) | growth inhibition (GI) (Malme-3M) | growth inhibition (GI) (M14) | growth inhibition (GI) (MDA-MB-435) | growth inhibition (GI) (SK-MEL-5) | growth inhibition (GI) (UACC-257) | growth inhibition (GI) (UACC-62) | growth inhibition (GI) (OVCAR-3) | growth inhibition (GI) (OVCAR-4) | growth inhibition (GI) (OVCAR-5) | growth inhibition (GI) (OVCAR-8) | growth inhibition (GI) (NCI/ADR-RES) | growth inhibition (GI) (786-0) | growth inhibition (GI) (A498) | growth inhibition (GI) (ACHN) | growth inhibition (GI) (CAKI-1) | growth inhibition (GI) (RXF 393) | growth inhibition (GI) (SN12C) | growth inhibition (GI) (TK-10) | growth inhibition (GI) (UO-31) | growth inhibition (GI) (PC-3) | growth inhibition (GI) (MCF7) | growth inhibition (GI) (MDA-MB-231) | growth inhibition (GI) (Hs-578T) | growth inhibition (GI) (BT-549) | growth inhibition (GI) (T47D) | growth inhibition (GI) (MDA-MB-468)
5 µM: IC50 (Dihydrofolate reductase)
